Measurements published in patent US8268814B2, “Substituted sulfonamide compounds” (Gruenenthal GmbH, priority 2008, dated 2012).

What was measured:
[1] = target: T1, human B1R receptor (hB1R) (Homo sapiens, UniProt P46663); experiment: Functional FLIPR Ca2+ assay on the bradykinin 1 receptor, human (hB1R CHO K1 cells); type: cell-based; conditions: test substance 10 μM; CHO K1 cells transfected with human B1R gene; agonist Lys-Des-Arg9-bradykinin at EC80; % inhibition compared with maximum achievable inhibition; read-out: B1R antagonism, human (10 μM] % inhibition
T1 construct: expressed in transfected cells; host or cells: CHO K1 cells (Chinese hamster ovary), stably transfected
T1 sequence (P46663 1-353): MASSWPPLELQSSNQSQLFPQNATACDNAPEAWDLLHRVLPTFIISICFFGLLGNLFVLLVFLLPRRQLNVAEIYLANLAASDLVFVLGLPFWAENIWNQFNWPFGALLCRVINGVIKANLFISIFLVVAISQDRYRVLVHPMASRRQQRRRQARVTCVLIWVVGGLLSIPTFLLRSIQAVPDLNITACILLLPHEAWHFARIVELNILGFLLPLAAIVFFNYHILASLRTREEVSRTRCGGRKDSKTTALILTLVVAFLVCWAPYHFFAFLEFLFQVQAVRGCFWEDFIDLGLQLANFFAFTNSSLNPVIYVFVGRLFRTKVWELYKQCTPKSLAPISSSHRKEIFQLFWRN
Experimental: (§1) The agonistic or antagonistic action of substances can be quantified on the bradykinin 1 receptor (B1R) of the human and rat species with ectopically expressing cell lines (CHO K1 cells) and with the aid of a Ca^2+-sensitive dyestuff (Fluo-4) in a fluorescent imaging plate reader (FLIPR). The figure in % activation is based on the Ca^2+ signal after addition of Lys-Des-Arg^9-bradykinin (0.5 nM) or Des-Arg^9-bradykinin (100 nM). Antagonists lead to a suppression of the Ca^2+ inflow after addition of the agonist. % inhibition compared with the maximum achievable inhibition is stated.
(§2) The agonistic or antagonistic action of substances can be determined on the bradykinin 1 receptor (B1R) of the human and rat species with the following assay. In accordance with this assay, the Ca^2+ inflow through the channel is quantified with the aid of a Ca^2+-sensitive dyestuff (type Fluo-4, Molecular Probes Europe BV, Leiden, Holland) in a fluorescent imaging plate reader (FLIPR, Molecular Devices, Sunnyvale, USA).
(§3) Chinese hamster ovary cells (CHO K1 cells) transfected stably with the human B1R gene (hB1R cells) or the B1R gene of the rat (rB1R cells) are used. For functional studies, these cells are plated out on black 96-well plates with a clear base (BD Biosciences, Heidelberg, Germany or Greiner, Frickenhausen, Germany) in a density of 20,000-35,000 cells/well. The cells are left overnight at 37° C. and 5% CO2 in culture medium (hB1R cells: Nutrient Mixture Ham's F12, Gibco Invitrogen GmbH, Karlsruhe, Germany or DMEM, Sigma-Aldrich, Taufkirchen, Germany; rB1R cells: D-MEM/F12, Gibco Invitrogen GmbH, Karlsruhe, Germany) with 10 vol. % FBS (foetal bovine serum, Gibco Invitrogen GmbH, Karlsruhe, Germany or PAN Biotech GmbH, Aidenbach, Germany). On the following day, the cells are loaded for 60 min at 37° C. with 2.13 μM Fluo-4 (Molecular Probes Europe BV, Leiden, Holland) in HBSS buffer (Hank's buffered saline solution, Gibco Invitrogen GmbH, Karlsruhe, Germany) with 2.5 mM probenecid (Sigma-Aldrich, Taufkirchen, Germany) and 10 mM HEPES (Sigma-Aldrich, Taufkirchen, Germany). The plates are then washed 2× with HBSS buffer, and HBSS buffer which additionally contains 0.1% BSA (bovine serum albumin; Sigma-Aldrich, Taufkirchen, Germany), 5.6 mM glucose and 0.05% gelatine (Merck KgaA, Darmstadt, Germany) is added. After a further incubation of 20 minutes at room temperature, the plates are inserted into the FLIPR for the Ca^2+ measurement.
(§4) Alternatively, the plates are washed with buffer A (15 mM HEPES, 80 mM NaCl, 5 mM KCl, 1.2 mM CaCl2, 0.7 mM MgSO4, 2 g/l glucose, 2.5 mM probenecid), buffer A is added and the plates are loaded with 2.5 μM Fluo-4 and 0.025% Pluronic F127 (Sigma-Aldrich, Taufkirchen, Germany). Thereafter, the cells are washed 2× with buffer A and incubated for 30 minutes with buffer A, which additionally contains 0.05% BSA and 0.05% gelatine, at room temperature and thereafter inserted into the FLIPR for the Ca^2+ measurement. The Ca^2+-dependent fluorescence is measured here before and after addition of substances (λex=488 nm, λem=540 nm). Quantification is by measurement of the highest fluorescence intensity (FC, fluorescence counts) over time.
(§5) The FLIPR protocol consists of 2 additions of substance. Test substances (10 μM) are first pipetted on to the cells and the Ca^2+ inflow is compared with the control (hB1R: Lys-Des-Arg^9-bradykinin >=50 nM; rB1R: Des-Arg^9-bradykinin 10 μM). This gives the figure in % activation based on the Ca^2+ signal after addition of Lys-Des-Arg^9-bradykinin (>=50 nM) or Des-Arg^9-bradykinin (10 μM). After incubation for 10-20 minutes, Lys-Des-Arg^9-bradykinin (hB1R) or Des-Arg^9-bradykinin (rB1R) in the concentration of the EC80 is applied and the inflow of Ca^2+ is likewise determined. Antagonists lead to a suppression of the Ca^2+ inflow. % inhibition compared with the maximum achievable inhibition is calculated. In order to determine the IC50 value, the substances are added in various concentrations. […]

[2] = target: T2, B1R receptor of the rat (rB1R) (Rattus norvegicus, UniProt P97583); experiment: Functional FLIPR Ca2+ assay on the bradykinin 1 receptor, rat (rB1R CHO K1 cells); type: cell-based; conditions: test substance 10 μM; CHO K1 cells transfected with rat B1R gene; agonist Des-Arg9-bradykinin at EC80; % inhibition compared with maximum achievable inhibition; read-out: B1R antagonism, rat [10 μM] % inhibition
T2 construct: expressed in transfected cells; host or cells: CHO K1 cells (Chinese hamster ovary), stably transfected
T2 sequence (P97583 1-337): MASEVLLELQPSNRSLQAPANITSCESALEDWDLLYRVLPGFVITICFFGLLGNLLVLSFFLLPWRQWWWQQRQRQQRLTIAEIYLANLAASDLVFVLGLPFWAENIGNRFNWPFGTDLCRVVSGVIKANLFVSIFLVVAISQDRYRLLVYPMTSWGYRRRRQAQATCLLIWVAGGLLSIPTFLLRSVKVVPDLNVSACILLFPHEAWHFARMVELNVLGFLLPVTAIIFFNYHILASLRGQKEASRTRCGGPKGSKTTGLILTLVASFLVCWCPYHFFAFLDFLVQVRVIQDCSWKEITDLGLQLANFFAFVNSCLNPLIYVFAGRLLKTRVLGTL
Experimental: as §1, §2, §3, §4, §5

Row | inhibition at 10 µM [1] [%] | inhibition at 10 µM [2] [%] | SMILES
1 | 14 | 79 | O=C(CC(NS(=O)(=O)c1ccc2ccccc2c1)c1ccccc1)N1CCc2nc(Cc3ccncc3)sc2C1 (racemic) [Example 42, N-(3-oxo-1-phenyl-3-(2-(pyridin-4-ylmethyl)-6,7-dihydrothiazolo[5,4-c]pyridin-5(4H)-yl)propyl)naphthalene-2-sulfonamide]
2 | 100 | 102 | CN1CCN(Cc2cc3c(s2)CCN(C(=O)CC(NS(=O)(=O)c2ccc4ccccc4c2)c2ccccc2)C3)CC1 (racemic) [Example 46, N-(3-(2-((4-methylpiperazin-1-yl)methyl)-6,7-dihydrothieno[3,2-c]pyridin-5(4H)-yl)-3-oxo-1-phenylpropyl)naphthalene-2-sulfonamide]
3 | 100 |  | COc1cc(C)c(S(=O)(=O)N2CCCC[C@H]2COCC(=O)N2CCc3sc(CN4CCCN(C)CC4)cc3C2)c(C)c1 [Example 64, 2-[[(2S)-1-[(4-methoxy-2,6-dimethyl-phenyl)sulfonyl]-piperidin-2-yl]-methoxy]-1-[2-[(4-methyl-[1,4]diazepan-1-yl)-methyl]-4,5,6,7-tetrahydro-thieno[3,2-c]pyridin-5-yl]-ethanone]
4 |  | 65 | O=C(CCCC1CCCCN1S(=O)(=O)c1ccccc1C(F)(F)F)N1CCc2[nH]cnc2C1c1ccccc1 (stereo not shown) [Example 88, 1-(4-Phenyl-4,5,6,7-tetrahydro-1H-imidazo[4,5-c]pyridin-5-yl)-4-[1-[[2-(trifluoromethyl)-phenyl]sulfonyl]-piperidin-2-yl]-butan-1-one]
5 |  | 103 | COc1cc(C)c(S(=O)(=O)N2c3ccccc3OCC2COCC(=O)N2CCc3sc(CN4CCN(C)CC4)cc3C2)c(C)c1 (stereo not shown) [Example 91, 2-[[4-[(4-Methoxy-2,6-dimethyl-phenyl)sulfonyl]-3,4-dihydro-2H-[1,4]benzoxazin-3-yl]-methoxy]-1-[2-[(4-methyl-piperazin-1-yl)-methyl]-4,5,6,7-tetrahydro-thieno[3,2-c]pyridin-5-yl]-ethanone]
6 |  | 94 | COc1cc(C)c(S(=O)(=O)N2c3ccccc3OCC2COCC(=O)N2CCc3[nH]cnc3C2c2ccccc2)c(C)c1 (stereo not shown) [Example 92, 2-[[4-[(4-Methoxy-2,6-dimethyl-phenyl)sulfonyl]-3,4-dihydro-2H-[1,4]benzoxazin-3-yl]-methoxy]-1-(4-phenyl-4,5,6,7-tetrahydro-1H-imidazo[4,5-c]pyridin-5-yl)-ethanone]
7 |  | 93 | CN1CCN(Cc2cc3c(s2)CCN(C(=O)COCC2COc4ccccc4N2S(=O)(=O)c2ccccc2C(F)(F)F)C3)CC1 (stereo not shown) [Example 93, 1-[2-[(4-Methyl-piperazin-1-yl)-methyl]-4,5,6,7-tetrahydro-thieno[3,2-c]pyridin-5-yl]-2-[[4-[[2-(trifluoromethyl)-phenyl]sulfonyl]-3,4-dihydro-2H-[1,4]benzoxazin-3-yl]-methoxy]-ethanone]
8 |  | 36 | O=C(COCC1COc2ccccc2N1S(=O)(=O)c1ccccc1C(F)(F)F)N1CCc2[nH]cnc2C1c1ccccc1 (stereo not shown) [Example 94, 1-(4-Phenyl-4,5,6,7-tetrahydro-1H-imidazo[4,5-c]pyridin-5-yl)-2-[[4-[[2-(trifluoromethyl)-phenyl]sulfonyl]-3,4-dihydro-2H-[1,4]benzoxazin-3-yl]-methoxy]-ethanone]
9 |  | 99 | COc1cc(C)c(S(=O)(=O)N(C)CCOCC(=O)N2CCc3sc(CN4CCN(C)CC4)cc3C2)c(C)c1C [Example 95, 4-Methoxy-N,2,3,6-tetramethyl-N-[2-[2-[2-[(4-methyl-piperazin-1-yl)-methyl]-4,5,6,7-tetrahydro-thieno[3,2-c]pyridin-5-yl]-2-oxo-ethoxy]-ethyl]-benzenesulfonic acid amide]
10 |  | 54 | COc1cc(C)c(S(=O)(=O)N(C)CCOCC(=O)N2CCc3[nH]cnc3C2c2ccccc2)c(C)c1C (stereo not shown) [Example 96, 4-Methoxy-N,2,3,6-tetramethyl-N-[2-[2-oxo-2-(4-phenyl-4,5,6,7-tetrahydro-1H-imidazo[4,5-c]pyridin-5-yl)-ethoxy]-ethyl]-benzenesulfonic acid amide]
11 |  | 96 | CN1CCN(Cc2cc3c(s2)CCN(C(=O)COCC2CCCCN2S(=O)(=O)c2ccccc2C(F)(F)F)C3)CC1 (stereo not shown) [Example 97, 1-[2-[(4-Methyl-piperazin-1-yl)-methyl]-4,5,6,7-tetrahydro-thieno[3,2-c]pyridin-5-yl]-2-[[1-[[2-(trifluoromethyl)-phenyl]sulfonyl]-piperidin-2-yl]-methoxy]-ethanone]
12 |  | 98 | O=C(COCC1CCCCN1S(=O)(=O)c1ccccc1C(F)(F)F)N1CCc2[nH]cnc2C1c1ccccc1 (stereo not shown) [Example 98, 1-(4-Phenyl-4,5,6,7-tetrahydro-1H-imidazo[4,5-c]pyridin-5-yl)-2-[[1-[[2-(trifluoromethyl)-phenyl]sulfonyl]-piperidin-2-yl]-methoxy]-ethanone]
13 |  | 98 | COc1cc(C)c(S(=O)(=O)N2CCCCC2COCCC(=O)N2CCc3sc(CN4CCN(C)CC4)cc3C2)c(C)c1 (stereo not shown) [Example 99, 3-[[1-[(4-Methoxy-2,6-dimethyl-phenyl)sulfonyl]-piperidin-2-yl]-methoxy]-1-[2-[(4-methyl-piperazin-1-yl)-methyl]-4,5,6,7-tetrahydro-thieno[3,2-c]pyridin-5-yl]-propan-1-one]
14 |  | 101 | COc1cc(C)c(S(=O)(=O)N2CCCCC2COCCC(=O)N2CCc3[nH]cnc3C2c2ccccc2)c(C)c1 (stereo not shown) [Example 100, 3-[[1-[(4-Methoxy-2,6-dimethyl-phenyl)sulfonyl]-piperidin-2-yl]-methoxy]-1-(4-phenyl-4,5,6,7-tetrahydro-1H-imidazo[4,5-c]pyridin-5-yl)-propan-1-one]
